Consider nine molecules from ChEMBL document CHEMBL1136196, “Synthesis of three enantiomeric pairs of scyllo-inositol phosphate and molecular interactions between all possible regioisomers of scyllo-inositol phosphate and inositol 1,4,5-trisphosphate 3-kinase” (Bioorg Med Chem Lett, 2003).

Molecules are shown by their SMILES.

The target of the test is Inositol-trisphosphate 3-kinase A (Rattus norvegicus, UniProt P17105). The experiment in a line: Binding affinity against recombinant plasmid rat brain IP3K by overexpressing in Escherichia coli.
Inositol-trisphosphate 3-kinase A, sequence (P17105 whole entry): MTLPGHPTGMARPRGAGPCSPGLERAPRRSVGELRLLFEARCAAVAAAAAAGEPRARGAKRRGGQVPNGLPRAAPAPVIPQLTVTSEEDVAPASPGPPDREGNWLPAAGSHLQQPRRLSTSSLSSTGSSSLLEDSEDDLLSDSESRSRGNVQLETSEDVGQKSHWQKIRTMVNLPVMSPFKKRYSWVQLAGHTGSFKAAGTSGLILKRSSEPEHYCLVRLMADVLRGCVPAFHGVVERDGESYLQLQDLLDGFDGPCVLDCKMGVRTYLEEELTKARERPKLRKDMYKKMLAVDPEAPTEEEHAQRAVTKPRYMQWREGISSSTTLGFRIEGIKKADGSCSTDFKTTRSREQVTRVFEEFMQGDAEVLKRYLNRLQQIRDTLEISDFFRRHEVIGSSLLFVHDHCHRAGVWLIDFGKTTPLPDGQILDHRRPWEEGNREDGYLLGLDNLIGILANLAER
For orientation: IC50 means the point on the concentration scale where inhibition reaches its midpoint. Consider `O=P(O)(O)O[C@@H]1[C@H](O)[C@H](O)[C@@H](OP(=O)(O)O)[C@H](OP(=O)(O)O)[C@H]1O` (stereo in doubt; form 3) [INS(1,4,5)P3], for which the half-inhibitory concentration (IC50) was 43.7 µM.
Next, `O=P(O)(O)O[C@H]1[C@H](OP(=O)(O)O)[C@@H](OP(=O)(O)O)[C@H](O)[C@@H](O)[C@H]1OP(=O)(O)O`: above 100 µM.
For the molecule `O=P(O)(O)O[C@H]1[C@@H](O)[C@@H](OP(=O)(O)O)[C@H](OP(=O)(O)O)[C@@H](OP(=O)(O)O)[C@@H]1O`, the IC50 was 39.4 µM.
`O=P(O)(O)O[C@H]1[C@H](OP(=O)(O)O)[C@H](OP(=O)(O)O)[C@H](O)[C@@H](O)[C@H]1OP(=O)(O)O`: the IC50 was above 100 µM.
For the molecule `O=P(O)(O)O[C@H]1[C@H](OP(=O)(O)O)[C@H](O)[C@H](O)[C@@H](O)[C@@H]1OP(=O)(O)O`, the 50% inhibitory concentration (IC50) came out at 27.4 µM.
Under `O=P(O)(O)O[C@H]1[C@H](O)[C@@H](OP(=O)(O)O)[C@H](O)[C@@H](OP(=O)(O)O)[C@H]1O` stands 90 µM; under `O=P(O)(O)O[C@@H]1[C@H](O)[C@H](O)[C@@H](OP(=O)(O)O)[C@H](OP(=O)(O)O)[C@H]1O` (stereo in doubt; form 2) [INS(1,4,5)P3], 6.3 µM.
With `O=P(O)(O)O[C@@H]1[C@H](O)[C@H](O)[C@@H](OP(=O)(O)O)[C@H](OP(=O)(O)O)[C@H]1O` (stereo in doubt; form 1) [INS(1,4,5)P3], the half-inhibitory concentration (IC50) is 2.6 µM.
Under `O=P(O)(O)O[C@H]1[C@H](O)[C@@H](OP(=O)(O)O)[C@H](OP(=O)(O)O)[C@@H](OP(=O)(O)O)[C@H]1O` stands 27.8 µM.
